Data as given in PMC8144573, “Distinct EH domains of the endocytic TPLATE complex confer lipid and protein binding” (Nature Communications, 2021).

B1: SCAMP5 double NPF peptide (peptide derived from the N-terminus of Secretory Carrier Membrane Protein 5) (peptide)
chain: DPNPFDEDEEIVNPFSK
modifications: not checked

Tests used:
[1] = test system: SCAMP5; test: ES9 treatment, SCAMP5 localization; format: cell-based, Arabidopsis; conditions: 10 µM ES9, 5 min pretreatment then 30 min co-treatment with 2 µM FM4-64
Experimental: For ES9 treatment plants were pretreated for 5 min with 10 µM ES9, a generous gift of the lab of Jenny Russinova (PSB, VIB/Ugent, BE), in 1/2 MS media followed by 30 min co-treatment of ES9 with 2 µM FM4-64.

[2] = test system: EH1.2; test: Peptidome profiling by mass spectrometry, EH1.2; format: binding, Arabidopsis thaliana
Experimental: (§1) Arabidopsis (Col-0) was grown vertically on 1/2 MS media for 7 days on a nylon mesh, harvested and flash-frozen in liquid nitrogen. Frozen seedlings (3 g/experiment) were ground using mortar and pestle. Proteins were extracted and denatured in 50 mM NaHCO3, 8 M Urea and sonicated three times for 1 min. Protein extracts were rotated for 30 min at room temperature after which the extract was subsequently centrifuged twice at 20,000 × g for 20 min. DTT was added to the supernatant, was added to a final concentration of 5 mM and incubated at 55 °C for 30 min. Proteins were alkylated by the addition of 100 mM iodoacetamide and incubated for 15 min in the dark after which the mix was subsequently diluted with 50 mM NaHCO3 to a final concentration of 2 M urea. Trypsin was added in a ratio of 1:75, protein:trypsin (Sequencing Grade Modified Trypsin, V5117, Promega) and incubated overnight at 37 °C on a rotating wheel.
(§2) Trypsin was removed using Sep-Pak Vac 3cc columns (500 mg, WAT036815, Waters). The extract was acidified using 1% TFA for 15 min on ice and cleared by centrifugation at 1780 × g for 15 min at room temperature. The cleared extract was split into four and applied on an equilibrated Sep-Pak columns (Waters, WAT036815, Lot # 010437235B). The column was pre-wet using 5 ml of 100% MeCN followed by sequential washing with 1 ml, 3 ml, and 6 ml of 0.1% TFA. After application of the extract, the column was washed sequentially with 1 ml, 5 ml, and 6 ml of 0.1% TFA followed by a 2 ml wash with 0.1% TFA, 5% acetonitrile. The peptides were eluted using three times 2 ml 0.1% TFA, 40% acetonitrile. The eluate was lyophilized for two days to remove TFA. 200 µg EH domain or his-GFP were coupled, in triplicate, during one hour to 25 µl Ni Sepharose 6 Fast Flow beads (GE Healthcare, 17-5318-01). Unbound protein was removed by three washing steps of 1 ml each. The lyophilized peptides were solubilized in 20 mM HEPES, 150 mM NaCl buffer, 0.2 mM CaCl2, divided and added to the coupled beads. The peptidome was incubated with the proteins for 4 h after which the beads were washed three times with 1 ml of the binding buffer. Peptides were eluted by the addition of 80 µl 20 mM HEPES pH 8, 8 M Urea. The supernatant was removed from the beads and desalted with Monospin C18 columns (Agilent Technologies, A57003100) after which they were freeze dried.
(§3) Peptides were redissolved in 20 µl loading solvent A (0.1% TFA in water/acetonitrile (98:2, v/v)) of which 5 µl was injected for LC-MS/MS analysis on an Ultimate 3000 RSLC nano LC (Thermo Fisher Scientific, Bremen, Germany) in-line connected to a Q Exactive mass spectrometer (Thermo Fisher Scientific). The peptides were first loaded on a trapping column made in-house (100 μm internal diameter (I.D.) × 20 mm, 5 μm beads C18 Reprosil-HD, Dr. Maisch, Ammerbuch-Entringen, Germany) and after flushing from the trapping column the peptides were separated on a 50 cm µPAC™ column with C18-endcapped functionality (Pharmafluidics, Belgium) kept at a constant temperature of 35 °C. Peptides were eluted by a linear gradient from 98% solvent A′ (0.1% formic acid in water) to 55% solvent B′ (0.1% formic acid in water/acetonitrile, 20/80 (v/v)) in 30 min at a flow rate of 300 nl/min, followed by a 5 min wash reaching 99% solvent B’. The mass spectrometer was operated in data-dependent, positive ionization mode, automatically switching between MS and MS/MS acquisition for the 5 most abundant peaks in a given MS spectrum. The source voltage was 2.2 kV, and the capillary temperature was 250 °C. […]

[3] = test system: EH1.2+EH1.1; test: Peptidome profiling by mass spectrometry, EH1.2+EH1.1 vs GFP; format: binding, Arabidopsis thaliana
From the text: Supplement 41467_2021_23314_MOESM6_ESM.xlsx, sheet "Supplementary Data 3" | column: EH1.2+EH1.1 vs GFP

[4] = test system: EH1.1; test: Peptidome profiling by mass spectrometry, EH1.1; format: binding, Arabidopsis thaliana; parameters: scale not given here
Experimental: as §1, §2, §3

[5] = target: First EH domain of AtEH1/Pan1 (EH1.1), amino acids 1-107, His-tagged (Arabidopsis thaliana); test: BLI; Octet RED96; His-tagged EH domain on Ni-NTA biosensors, covalently coupled with EDC/NHS; peptide as analyte in increasing concentrations; 20 mM HEPES pH 7.4, 150 mM NaCl, 2 mM CaCl2; 25 °C; steady state, one-site total binding model
First EH domain of AtEH1/Pan1 (EH1.1), amino acids 1-107, His-tagged (Arabidopsis thaliana), sequence (main, as listed by the source): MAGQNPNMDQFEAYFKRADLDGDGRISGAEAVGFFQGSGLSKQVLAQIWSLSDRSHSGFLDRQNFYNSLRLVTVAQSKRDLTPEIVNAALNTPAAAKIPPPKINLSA

[6] = target: 15N-labeled EH1.1 of AtEH1/Pan1 (amino acids 1-107) for NMR titration (Arabidopsis thaliana); test: NMR titration; 1H,15N HSQC of 15N-labeled EH domain with successive addition of unlabeled peptide up to 1:4 excess; 20 mM MES 6.5, 150 mM NaCl, 2 mM CaCl2; chemical shift perturbations fitted to a binding isotherm; apparent
[7] = target: 15N-labeled EH1.2 of AtEH1/Pan1 (amino acids 346-449) for NMR titration (Arabidopsis thaliana); test: as above
15N-labeled EH1.2 of AtEH1/Pan1 (amino acids 346-449) for NMR titration (Arabidopsis thaliana), sequence (main, as listed by the source): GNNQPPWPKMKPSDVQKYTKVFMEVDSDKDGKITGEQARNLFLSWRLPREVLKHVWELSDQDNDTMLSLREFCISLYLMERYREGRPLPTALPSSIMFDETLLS

Kd [5] | Kd [6] | Kd [7] | Molecule | effect on SCAMP5 localization (in words) [1] | Difference ([2]; EH1.2 vs EH1.1+GFP) | Difference ([2]; EH1.2 vs GFP) | Difference [3] | Difference ([4]; EH1.1 vs EH1.2) | Difference ([4]; EH1.1 vs EH1.2+GFP) | Difference ([4]; EH1.1 vs GFP)
 |  |  | O=[N+]([O-])c1ccc(NS(=O)(=O)c2ccc(Br)s2)cc1 [ES-9] | caused SCAMP5 accumulation at the PM |  |  |  |  |  | 
 |  |  | DLTPEIVNAALNTPAAAK |  | -3.31 | 3.059 | 7.898 | 9.679 | 11.2082 | 12.7377
 |  |  | VFMEVDSDKDGKITGEQAR |  | 15.5083 | 15.257 | 7.377 | -15.7597 | -8.131 | -0.5027
 |  |  | YHASAIHVPGPEVAR |  | 3.084 | 7.163 | 7.661 | 0.9954 | 4.577 | 8.159
59 µM | 33 µM | 190 µM | B1 |  |  |  |  |  |  | 
